# Assay results: PMC6271891, “Exploration of Piperidinols as Potential Antitubercular Agents” (Molecules, 2014)
# Several values for one entry are separate records, joined by “and”; a condition that tells them apart may be missing. Equal entries are not always repeated. Where two headings read alike, the source gives them in different places.
# What was measured:
# MMNAT [1] = target: T1, MMNAT (Mycobacterium marinum, UniProt B2HIZ6); test: Time-dependent (irreversible) inactivation of MMNAT by the piperidinols; type: biochemical; settings: for kobs: 24 °C, mean ± S.D. of triplicate; for t1/2, apparent inactivation half-life: t1/2 = 0.693/kobs
# Experimental: (§1) An assay for measuring the formation of CoA [23] was modified and used to determine the activity of the enzyme in the presence of potential inhibitors exactly as described previously. Irreversible inhibition, progressive with time was measured for the piperidinol inhibitors by the protocol described in [13] and the values of the apparent first order rate constant (kobs) were determined using the Kitz and Wilson model. Adduct formation was determined as previously described by mass spectroscopy analysis.
# Figure S1. The time-dependent inhibition of the MMNAT by the piperidinols (A) compounds 1, 3, 4, 6 at 11.9 μM concentration (B) 5, 7 at 5.9 μM concentration and (C) 8, […]
# Semi-logarithmic plots showing the time-dependent inactivation of MMNAT by (A) compounds 1, 3, 4, 6 at 11.9 μM concentration (B) 5, 7 at 5.9 μM concentration and (C) 8, 9 (11.9 μM), 10 (23.8 μM) and 11 (5.9 μM). The enzyme activity was measured using the protocol described in [1]. The results are presented as the mean ± S.D. of triplicate measurements. The error bars are within the symbols.
# The residual activity is shown as a percentage of a control. The data were fitted against the incubation time using the Semilog line (X is linear, Y is Log) module of GraphPad Prism 5.0. The slope of each line is equivalent to (−kobs/2.303) at each inhibitor concentration. […]
# MMNAT [2] = target: T1, MMNAT; test: NAT inhibition assay (CoA formation), MMNAT; type: biochemical; settings: for inhibition at 50 µM: read-out: MMNAT % Inhibition
# Experimental: (§2) The NAT enzymes from M. smegmatis, S. typhimurium, P. aeruginosa, M. marinum, M. tuberculosis, hamster NAT2 [45] and human NAT1 [46] were produced as recombinant proteins, purified as previously described and stored at −80 in 20 mM Tris-HCl pH 8 containing 1 mM dithiothreitol and 5% glycerol and thawed and used within 1–5 h.
# as §1
# M. bovis BCG = test: microbe, parasite or virus in culture; type: cell-based; settings: Mycobacterium tuberculosis variant bovis BCG, 336 h, read-out: MIC M. bovis BCG
# [3] = test system: M. tuberculosis strain H37Rv; test: Mycobacterial growth inhibition, spot culture on solid medium, M. tuberculosis H37Rv; type: cell-based; settings: Mycobacterium tuberculosis, 336 h, read-out: MIC M. tuberculosis
# RAW 264.7 cells = settings: up to 50 μg/mL inhibitor concentration
# mycobacteria = test system: mycobacteria; parameters: method as in PMID 23285185; settings: cited from earlier work
# TBNAT = target: T2, TBNAT (Mycobacterium tuberculosis, UniProt P9WJI5); test: NAT inhibition assay (CoA formation), TBNAT; type: biochemical, M. tuberculosis; settings: for inhibition at 50 µM: read-out: TBNAT % Inhibition; for IC50: inhibitor 0–250 μM
# T2 construct: made in house
# Experimental: as §2, §1
# [4] = test system: M. bovis BCG str. Pasteur (ATCC 35734); test: microbe, parasite or virus in culture; type: cell-based; settings: Mycobacterium tuberculosis variant bovis BCG, read-out: MIC against M. bovis BCG
# [5] = 5ASA as substrate, mean ± S.D. of triplicate, read-out: MMNAT IC50 5ASA
# [6] = strain H37Rv, solid medium 7H10-OADC, no growth after 2 weeks
# [7] = 50 μM inhibitor, 150 μM HLZ and 120 μM Ac-CoA, mean ± S.D. of triplicate
# [8] = 150 μM HLZ and 120 μM Ac-CoA, mean ± S.D. of triplicate
# [9] = 150 μM HLZ and 120 μM Ac-CoA, inhibitor 0–250 μM, mean ± S.D. of triplicate, read-out: MMNAT IC50 HLZ
# T1 sequence (B2HIZ6 entry or part of it): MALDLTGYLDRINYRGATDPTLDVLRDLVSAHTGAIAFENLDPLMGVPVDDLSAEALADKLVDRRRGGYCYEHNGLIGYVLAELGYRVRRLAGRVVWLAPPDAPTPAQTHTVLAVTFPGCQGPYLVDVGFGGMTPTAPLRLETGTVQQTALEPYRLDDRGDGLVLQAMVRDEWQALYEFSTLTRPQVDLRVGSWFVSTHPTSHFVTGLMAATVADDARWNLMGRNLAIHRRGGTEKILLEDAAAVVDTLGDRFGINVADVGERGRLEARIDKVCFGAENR
# T2 sequence (P9WJI5 whole entry): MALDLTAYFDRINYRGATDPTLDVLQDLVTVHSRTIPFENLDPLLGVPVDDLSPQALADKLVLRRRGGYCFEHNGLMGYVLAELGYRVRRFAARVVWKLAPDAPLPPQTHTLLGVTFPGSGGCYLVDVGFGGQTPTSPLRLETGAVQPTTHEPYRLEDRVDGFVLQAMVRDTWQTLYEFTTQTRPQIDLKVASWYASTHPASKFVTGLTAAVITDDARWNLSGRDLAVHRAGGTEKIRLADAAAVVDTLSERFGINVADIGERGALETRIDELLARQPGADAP
smiles,measurement,setting,value
CN1CCC(O)(c2ccccc2)C(C(=O)c2ccccc2)C1 (stereo not shown) [Compound 1],kobs,MMNAT [1]; inhibitor 11.9 μM,9 ± 2 10^−3 min^−1
same,"t1/2, apparent inactivation half-life",MMNAT [1]; inhibitor 11.9 μM,81.5 min
same,IC50,MMNAT [2]; [5],6000 ± 1000 nM
same,MIC,M. bovis BCG,6.3 to 12.5 µg/mL
same,MIC,[3]; [6],1 to 10 µg/mL
same,Cytotoxic effect on RAW 264.7 cells,RAW 264.7 cells,no cytotoxicity was observed
same,MIC (antimycobacterial),mycobacteria,< 5 µg/mL
CN1CCC(O)(c2ccc(Cl)cc2)C(C(=O)c2ccc(Cl)cc2)C1 (stereo not shown) [Compound 2],kobs,MMNAT [1]; inhibitor 11.9 μM,110 ± 2 10^−3 min^−1
same,"t1/2, apparent inactivation half-life",MMNAT [1]; inhibitor 11.9 μM,6.3 min
same,inhibition at 50 µM,TBNAT; [7],98 ± 1%
same,IC50,TBNAT; [8],1600 ± 100 nM
same,inhibition at 50 µM,MMNAT [2]; [7],103 ± 2%
same,IC50,MMNAT [2]; [9],160 ± 10 nM
same,IC50,MMNAT [2]; [5],1400 ± 600 nM
same,MIC,M. bovis BCG,6.3 to 12.5 µg/mL
CN1CCC(O)(c2ccc(Br)cc2)C(C(=O)c2ccc(Br)cc2)C1 (stereo not shown) [Compound 3],kobs,MMNAT [1]; inhibitor 11.9 μM,74 ± 7 10^−3 min^−1
same,"t1/2, apparent inactivation half-life",MMNAT [1]; inhibitor 11.9 μM,9.4 min
same,inhibition at 50 µM,TBNAT; [7],98 ± 3%
same,IC50,TBNAT; [8],2900 ± 400 nM
same,inhibition at 50 µM,MMNAT [2]; [7],99 ± 1%
same,IC50,MMNAT [2]; [9],80 ± 10 nM
same,IC50,MMNAT [2]; [5],1300 ± 400 nM
same,MIC,M. bovis BCG,6.3 to 12.5 µg/mL
same,MIC,[3]; [6],5 to 10 µg/mL
CCN1CCC(O)(c2ccccc2)C(C(=O)c2ccccc2)C1 (stereo not shown) [Compound 4],kobs,MMNAT [1]; inhibitor 11.9 μM,15 ± 1 10^−3 min^−1
same,"t1/2, apparent inactivation half-life",MMNAT [1]; inhibitor 11.9 μM,45.6 min
same,inhibition at 50 µM,TBNAT; [7],72 ± 4%
same,IC50,TBNAT; [8],7300 ± 300 nM
same,inhibition at 50 µM,MMNAT [2]; [7],126 ± 5%
same,IC50,MMNAT [2]; [9],1900 nM
same,IC50,MMNAT [2]; [5],8000 ± 1000 nM
same,MIC,M. bovis BCG,6.3 to 12.5 µg/mL
same,MIC,[3]; [6],5 to 10 µg/mL
CCN1CCC(O)(c2ccc(F)cc2)C(C(=O)c2ccc(F)cc2)C1 (stereo not shown) [Compound 5],kobs,MMNAT [1]; inhibitor 5.9 μM,638 ± 120 10^−3 min^−1
same,"t1/2, apparent inactivation half-life",MMNAT [1]; inhibitor 5.9 μM,1.1 min
same,inhibition at 50 µM,TBNAT; [7],108 ± 1%
same,IC50,TBNAT; [8],4400 nM
same,inhibition at 50 µM,MMNAT [2]; [7],102 ± 3%
same,IC50,MMNAT [2]; [9],500 nM
same,IC50,MMNAT [2]; [5],1300 ± 500 nM
same,MIC,M. bovis BCG,6.3 to 12.5 µg/mL
same,MIC,[3]; [6],5 to 10 µg/mL
CCCCN1CCC(O)(c2ccccc2)C(C(=O)c2ccccc2)C1 (stereo not shown) [Compound 6],kobs,MMNAT [1]; inhibitor 11.9 μM,104 ± 8 10^−3 min^−1
same,"t1/2, apparent inactivation half-life",MMNAT [1]; inhibitor 11.9 μM,6.6 min
same,inhibition at 50 µM,TBNAT; [7],100 ± 3%
same,IC50,TBNAT; [8],6900 ± 400 nM
same,inhibition at 50 µM,MMNAT [2]; [7],102 ± 3%
same,IC50,MMNAT [2]; [9],2600 ± 1000 nM
same,IC50,MMNAT [2]; [5],5000 ± 400 nM
same,MIC,M. bovis BCG,6.3 to 12.5 µg/mL
same,MIC,[3]; [6],1 to 5 µg/mL
O=C(c1ccccc1)C1CN(C2CCCCC2)CCC1(O)c1ccccc1 (stereo not shown) [Compound 7],kobs,MMNAT [1]; inhibitor 5.9 μM,573 ± 25 10^−3 min^−1
same,"t1/2, apparent inactivation half-life",MMNAT [1]; inhibitor 5.9 μM,1.2 min
same,IC50,MMNAT [2]; [5],1700 ± 200 nM
same,MIC,M. bovis BCG,6.3 to 12.5 µg/mL
same,MIC,[3]; H37RV,1 to 5 µg/mL
O=C(c1ccccc1)C1CN(Cc2ccccc2)CCC1(O)c1ccccc1 (stereo not shown) [Compound 8],kobs,MMNAT [1]; inhibitor 11.9 μM,10 ± 1 10^−3 min^−1
same,"t1/2, apparent inactivation half-life",MMNAT [1]; inhibitor 11.9 μM,71.4 min
same,inhibition at 50 µM,TBNAT; [7],58 ± 2%
same,inhibition at 50 µM,MMNAT [2]; [7],101 ± 1%
same,IC50,MMNAT [2]; [9],4100 ± 400 nM
same,MIC,M. bovis BCG,6.3 to 12.5 µg/mL
same,MIC,[3]; [6],0 to 1 µg/mL
O=C(c1ccccc1)C1CN(C2CCCO2)CCC1(O)c1ccccc1 (stereo not shown) [Compound 9],kobs,MMNAT [1]; inhibitor 11.9 μM,163 ± 39 10^−3 min^−1
same,"t1/2, apparent inactivation half-life",MMNAT [1]; inhibitor 11.9 μM,4.2 min
same,inhibition at 50 µM,TBNAT; [7],51 ± 3%
same,inhibition at 50 µM,MMNAT [2]; [7],100.8 ± 0.5%
same,IC50,MMNAT [2]; [9],2500 ± 300 nM
same,IC50,MMNAT [2]; [5],9000 ± 900 nM
same,MIC,[3]; [6],0 to 1 µg/mL
O=C(c1ccccc1)C1CN(C2CCS(=O)(=O)C2)CCC1(O)c1ccccc1 (stereo not shown) [Compound 10],kobs,MMNAT [1]; inhibitor 23.8 μM,19 ± 1 10^−3 min^−1
same,"t1/2, apparent inactivation half-life",MMNAT [1]; inhibitor 23.8 μM,37.1 min
same,inhibition at 50 µM,TBNAT; [7],47 ± 2%
same,inhibition at 50 µM,MMNAT [2]; [7],99 ± 0.7%
same,IC50,MMNAT [2]; [9],13000 ± 1000 nM
same,IC50,MMNAT [2]; [5],> 30000 nM
same,MIC,M. bovis BCG,3.1 to 6.3 µg/mL
CC1(C)CC(N2CCC(O)(c3ccccc3)C(C(=O)c3ccccc3)C2)CC(C)(C)N1 (stereo not shown) [Compound 11],kobs,MMNAT [1]; inhibitor 5.9 μM,34 ± 1 10^−3 min^−1
same,"t1/2, apparent inactivation half-life",MMNAT [1]; inhibitor 5.9 μM,20.2 min
same,IC50,MMNAT [2]; [5],1100 ± 300 nM
same,MIC,M. bovis BCG,6.3 to 12.5 µg/mL
same,MIC,[3]; [6],1 to 5 µg/mL
same,Cytotoxic effect on RAW 264.7 cells,RAW 264.7 cells,no cytotoxicity was observed
OC(CCN1CCCCC1)c1ccc2c(c1)OCO2 (stereo not shown) [Compound 15],IC50,TBNAT; [8],20000 ± 3000 nM
same,inhibition at 50 µM,TBNAT,86 ± 2%
same,IC50,MMNAT [2]; [9],1000 ± 100 nM
same,inhibition at 50 µM,MMNAT [2],103 ± 3%
same,MIC,[4],125 µM to 250 µM and 33 µg/mL to 66 µg/mL
C=CCC(O)(CCN1CCOCC1)c1ccc(F)cc1 (stereo not shown) [Compound 16],inhibition at 50 µM,TBNAT,-14 ± 3%
same,IC50,MMNAT [2]; [9],6400 ± 600 nM
same,inhibition at 50 µM,MMNAT [2],99 ± 1%
